Source: patent US20200390902A1, “Antibody-Drug Conjugates Targeted at Human Aspartyl-(Asparaginyl)-B-Hydroxylase (HAAH)” (Panacea Pharmaceuticals, Inc., priority 2017, published 2020)
Entries after “also recorded” stand apart in the source; their conditions may differ.

Tests used:
[1] = test system: MIA-PaCa-2 ASPH cells; experiment: MTS cytotoxicity assay, MIA-PaCa-2 ASPH; assay type: cell-based, human; settings: 10-50 nM, 48 hours
Method: The in vitro specificity of SNS622-MC-DM1 was also examined using the human pancreas cell line MIA-PaCa-2 ASPH. This cell line has a high level expression of ASPH. MIA-PaCa-2 cells were seeded at a density of 2,000 cells/well and cultured in high-glucose (25 mM D-glucose) Dulbecco's Modified Eagle's Medium (DMEM) with 10% FBS at 37° C. in a humidified atmosphere containing 5% CO2. The cells were treated with 10 nM IgG1-MC-DM1, 20 nM IgG1-MC-DM1, 50 nM IgG1-MC-DM1, 10 nM SNS622-MC-DM1, 20 nM SNS622-MC-DM1, or 50 nM SNS622-MC-DM1 for 48 hours. IgG1-MC-DM1 is a control ADC obtained from Goodwin Biotechnology, having catalog No. DAGIC1194, The cytotoxicity of the ADCs was measured using an MTS assay kit (Promega, Catalog No, G3582). After treatment for 1 hour with the MTS solution, absorbance was measured using a microplate reader at a 490 nm wavelength, with a reference at 690 nm.

[2] = test system: normal human lung fibroblasts (NHLF); experiment: Lactate dehydrogenase (LDH) release assay, NHLF; assay type: cell-based; settings: 32 nM, 72 hours
[3] = test system: MIA-PaCa-2 ASPH-derived tumors; experiment: Mouse model inoculated with pancreas cancer cells, MIA-PaCa-2 ASPH tumors; assay type: in vivo
Method: The efficacy and specificity of SNS622-MC-DM1 was first examined in the mouse model with inoculation of pancreas cancer cells. In this model. 5 to 6-week-old female Nod Scid Gamma (NSG) mice (The Jackson Laboratory, Bar Harbor, Me., U.S.A.) were subcutaneously inoculated with 5×10^5 MIA-PaCa-2 EV cells (MIA-PaCa-2 cells transduced with an empty lentivirus vector) in 100 μl buffer solution on one shoulder, and with 5×10^5 MIA-PaCa-2 ASPH cells (MIA-PaCa-2 cells expressing high levels of ASPH) in 100 μl buffer solution on the other shoulder Two weeks post-inoculation, SNS622-MC-DM1 or IgG1-MC-DM1 was injected at 5 mg/kg through a tail vein once a week for 4 weeks. A representation of the schedule used for the ADC treatments is show n in FIG. 13.
The volume of the tumors inoculated with the MIA-PaCa-2 ASPH cells was measured starting at day 1 of treatment with ADC, and the results are shown in FIG. 15B.

[4] = test system: MOLM-14 cells; experiment: MTS cell viability assay, MOLM-14; assay type: cell-based, human; settings: MOLM-14, 24 hours
Method: Human H460 cells were obtained from the American Type Culture Collection (ATCC; Manassas, Va., U.S.A.). […] Human MOLM-14 cells were obtained from Dr. Ashkan Emadi at University of Maryland (Baltimore. Md., U.S.A.). The MOLM-14 cells were seeded at a density of 5000 cells/well in 96-well plates and cultured in RPMI 1640 with 20% heat-inactivated FBS. The H460 and MOLM-14 cells were treated with naked antibodies or ADCs for 24 hours, starting at the time of cell seeding. By the end of experiment, the cell viability for both cell lines was determined quantitatively using CELL TITER 96 AQUOUS ONE SOLUTION cell proliferation assay, a colorimetric method for determining the number of viable cells (MTS; Promega, Madison. Wis., U.S.A.; Catalog No. G3582).

[5] = test system: H460 cells; experiment: Lactate dehydrogenase (LDH) release assay, H460
Method: FIG. 6 depicts the effects of linker and payload on cytotoxicity to cancer cell H460. […] The Log of the antibody concentration in nM is shown on the X axis.
HAAH is highly expressed on the surface of cancer cells, but not on normal adult human cells. The specificity of SNS622-MC-DM1 was examined using human lung carcinoma cell line H460 and LONZA NHLF, a normal human lung fibroblasts (NHLF) cell line. Both cell lines were cultured in HG-DMEM (ThermoFisher Scientific Catalog No. 11965-092) supplemented with 20 mM HEPES (4-(2-hydroxyethyl)-1-piperazineethanesulfonic acid), 4 mM L-glutamine, 1 mM sodium pyruvate, 1× non-essential amino acids, 50 μg/ml gentamicin and 10% fetal bovine serum (FBS). H460 and NHLF cells were seeded into 96-well plates at 5,000 cells per well, following a 2-day FBS deprivation, and released by culture in complete culture medium containing 10% FBS. […] By 72 hours post treatment, cell death was determined by observing cell morphology using a phase contrast microscope at 150×.
The cell death was also quantified using lactate dehydrogenase (LDH) releasing assay. For the LDH assay, a mixture of a 35 μl aliquot of culture medium and 17.5 μl of substrate, enzyme, and dye solutions (Sigma, St. Louis, Mo., U.S.A.) was incubated at room temperature for 30 minutes, and absorbance was measured at 490 nm using a plate reader (ELx805; BioTek, Winooski, Vt., U.S.A.).

[6] = test system: pancreatic ductular adenocarcinoma (PDAC) xenograft; experiment: Patient-derived xenograft (PDx) model of PDAC, primary tumor growth; assay type: in vivo, mouse; settings: 2.5 mg/kg i.v., by day 35, vs SNS622 or non-treated control
From the text: Pancreatic ductular adenocarcinoma (PDAC) is a highly lethal malignancy with limited treatment options. HAAH is a cell surface protein that is highly expressed in […] of PDACs. The specificity of SNS622-MC-DM1 was next examined in the patient-derived xenograft (PDx) mouse model PDAC. The patient-derived xenograft (PDx) murine model was established by using surgically resected PDAC (from Rhode Island Hospital, Providence, R.I., U.S.A.). Five to six-week-old female Nod Scid Gamma (NSG) mice were employed. The surgically resected tumor tissue was diced into 5×5×5 mm^3 pieces, and a piece of tumor tissue was subcutaneously transplanted under anesthesia with isoflurane into each mouse via a small incision in the lower back, A buprenorphine analgesic was injected to each mouse for 3 days after surgery. The SNS622 antibody or the SNS622-MC-DM1 ADC was administered at a dose of 2.5 mg/kg by intravenous tail-vein injection every two weeks starting at day 17 post-surgery. Body weight and tumor size were measured twice a week and tumor volume was calculated using the modified ellipsoid formula (0.5×length×width^2). To determine the effect of SNS622-MC-DM1 on lung metastasis, all lung tissues were immersed in Bouin's fixative solution (Sigma-Aldrich, St. Louis, Mo., U.S.A.; catalog No, HT10132) and metastatic nodules on the surface of the lungs were counted. […]

In the case of “SNS622-MC-DM1: SNS622 anti-HAAH monoclonal antibody conjugated to mertansine (DM1) by the non-cleavable linker maleimidocaproyl (MC)”, the “Reduction of relative absorbance (MTS)” value [1] is reported as “about 16%”, the “Increase in LDH release” value [2] is reported as “did not result in a detectable increase in LDH release” and the “Effect on MIA-PaCa-2 ASPH tumor volume / growth” value ([3]; 5 mg/kg, up to 29 days) is reported as “robustly suppressed; also recorded: strongly suppressed growth of MIA-PaCa-2 ASPH-derived tumors”. For the same substance, the “Reduction in tumor volume in comparison with IgG-MC-DM1 group” value (shortened to “Reduction in tumor volume in comparison”) ([3]; day 15, 5 mg/kg tail vein once a week) was “approximately 55%”, the “Reduction in tumor volume in comparison” value ([3]; day 22, 5 mg/kg tail vein once a week) was “approximately 53%” and the “Reduction in tumor volume in comparison” value ([3]; day 29, 5 mg/kg tail vein once a week) was “approximately 53%”. The “Volume of MIA-PaCa-2 ASPH-derived tumors relative to MIA-PaCa-2 EV-derived tumors” value ([3]; treatment day 29, same mouse, 5 mg/kg) was “approximately 1/7”, the “Effect on MOLM-14 cell viability / growth (MTS)” value [4] was “inhibit in vitro cell growth of both H460 and MOLM-14; also recorded: greatest suppression in the growth of MOLM-14 cells” and the “Increase in release of LDH compared to untreated cells” value ([5]; H460, 32 nM, 72 hours) was 39 ×. For the same substance, the CC50 ([5]; read-out: LC50 of LDH, H460, 72 hours, reaction DAR 10:1) was 36 nM and the PDAC tumor growth [6] was “significantly reduced PDAC tumor growth”.
